This passage reports IC50 and EC50 results from US8546389B2 (priority 2010, dated 2013).

The target in assay [1] is 1b (BK) NS5bΔ21 (Hepatitis C virus genotype 1b (isolate BK) (HCV), UniProt P26663). Put plainly: HCV polymerase inhibition assay, genotype 1b. It counts as biochemical, HCV genotype 1b (BK). Particulars: 1b (BK) NS5bΔ21, 33P-GTP incorporation; read-out: 1b polymerase IC50 (range class). As for the experimental part:
HCV polymerase reactions were carried out using a modified method of Howe et al., Antimicrobial Agents and Chemotherapy 2004 48(12): 4813-4821. Reactions contained a final concentration of, 0.5% DMSO, 50 nM, 1b (BK) NS5bΔ21, 20 mM Tris-HCl pH 7.5, 5 mM MgCl2, 5 mM MnCl2, 3 mM DTT, 0.05% BSA, 0.2 U/μL RNasin, 10 μg/mL Poly(rC) template, GTP (at Km) and 0.05 μCi/μL ^33P-GTP in a total reaction volume of 50 μL. Compounds were tested in a three fold dilution series, for example starting from 50 μM. Reactions were initiated with the addition of GTP and terminated after 1 hour with 50 μL ice cold 0.2 M EDTA. Terminated reactions were transferred to DEAE 96-well filter plates, unincorporated nucleotides washed from the filters and 50 μL scintillation fluid added prior to reading on a scintillation counter. Similarly, a genotype 3a (VRL-69) NS5bΔ21 polymerase enzyme assay was conducted using essentially the same method.
The compound concentration that reduced ^33P-GTP incorporation by 50% (IC50) was calculated using non-linear regression.

In assay [2] the test system is genotype 1b (Con 1) subgenomic replicon cell line. Put plainly: HCV replicon assay, genotype 1b (Renilla luciferase). It counts as cell-based, HCV genotype 1b (Con 1). To be noted: Hepatitis C virus; genotype 1b replicon, 72 hours, luciferase; read-out: genotype 1b EC50 (range class). As for the experimental part: A genotype 1b (Con 1) subgenomic replicon cell line based on Blight et al., Science 2000 290: 1972-1974, modified to express a Renilla luciferase reporter gene was used to assess antiviral activity of test compounds. Cell cultures were maintained in a sub-confluent state in DMEM with glutamine, 10% heat-inactivated foetal bovine serum (FBS) and G418 (Geneticin®).
For assay, cells were seeded at a density of 7000 cells/well into 96 well tissue culture trays in culture media lacking G418. Compounds were tested in a three fold dilution series, for example starting from 50 uM. After 72 hours incubation at 37° C. and 5% CO2, Renilla luciferase activity was quantified via the Promega Renilla Luciferase or Renilla-Glo™ Luciferase Assay Systems (Promega corporation. The same method was employed for replicon assays using subgenomic genotype 1a and 2a replicon cell lines with a seeding cell density of 5000 cells/well for the 2a cell lines.
The compound concentration that reduced luciferase activity by 50% (EC50) was calculated using non-linear regression.

Sequence of 1b (BK) NS5bΔ21 (P26663 2420-2989): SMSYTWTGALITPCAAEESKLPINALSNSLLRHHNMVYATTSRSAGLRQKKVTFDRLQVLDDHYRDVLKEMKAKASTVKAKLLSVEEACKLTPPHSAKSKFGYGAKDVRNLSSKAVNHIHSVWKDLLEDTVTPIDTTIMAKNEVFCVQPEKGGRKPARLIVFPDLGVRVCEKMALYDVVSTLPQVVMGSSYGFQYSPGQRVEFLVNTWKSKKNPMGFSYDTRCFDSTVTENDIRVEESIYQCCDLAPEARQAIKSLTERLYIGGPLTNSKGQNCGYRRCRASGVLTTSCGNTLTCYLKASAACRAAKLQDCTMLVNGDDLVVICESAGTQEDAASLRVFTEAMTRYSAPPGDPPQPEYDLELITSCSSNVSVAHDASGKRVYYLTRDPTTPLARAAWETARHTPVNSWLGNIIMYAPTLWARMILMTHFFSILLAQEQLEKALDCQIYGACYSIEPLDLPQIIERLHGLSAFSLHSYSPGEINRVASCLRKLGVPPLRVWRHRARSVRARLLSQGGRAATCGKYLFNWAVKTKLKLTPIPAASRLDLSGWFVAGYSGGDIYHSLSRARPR

A word on the IC50: it is the concentration needed to halve the response being measured. A word on the EC50: it is the concentration needed to bring the measured effect to its halfway point. With `CNC(=O)c1c2cc(C3CC3)c(N(CCCNC(=O)C3COCCN3C)S(C)(=O)=O)cc2nn1-c1ccc(Br)cc1` (stereo not shown) [Compound 64, 2-(4-Bromophenyl)-5-cyclopropyl-N-methyl-6-{[3-({[4-methylmorpholin-3-yl]carbonyl}amino)propyl](methylsulfonyl)amino}-2H-indazole-3-carboxamide], the IC50 in assay [1] is under 0.99 µM. Moreover, the EC50 in assay [2] is under 0.99 µM.

In the case of `CNC(=O)c1c2cc(C3CC3)c(N(CCCN(C)C)S(C)(=O)=O)cc2nn1-c1ccc(Br)cc1` [Compound 65, 2-(4-Bromophenyl)-5-cyclopropyl-6-{[3-(dimethylamino)propyl] (methylsulfonyl)amino}-N-methyl-2H-indazole-3-carboxamide], the IC50 in assay [1] is under 0.99 µM. The EC50 in assay [2] was under 0.99 µM.

Regarding `CNC(=O)c1c2cc(C3CC3)c(N(CCCNC(=O)CCC(=O)NC(C)C)S(C)(=O)=O)cc2nn1-c1ccc(Br)cc1` [Compound 67], in assay [1], the IC50 was under 0.99 µM. In addition, in assay [2], the EC50 lay within 1 to 9.99 µM.

Regarding `CNC(=O)c1c2cc(C3CC3)c(N(CCCNC(=O)CCC(=O)O)S(C)(=O)=O)cc2nn1-c1ccc(Br)cc1` [Compound 68, 4-[(3-{[2-(4-bromophenyl)-5-cyclopropyl-3-(methylcarbamoyl)-2H-indazol-6-yl](methylsulfonyl)amino}propyl)amino]-4-oxobutanoic acid], the IC50 in assay [1] was under 0.99 µM. For the same compound, the EC50 in assay [2] lay in the range of 10 to 50 µM.

With `CNC(=O)c1c2cc(C3CC3)c(N(CCCN3C(=O)CCC3=O)S(C)(=O)=O)cc2nn1-c1ccc(Br)cc1` [Compound 69, 2-(4-bromophenyl)-5-cyclopropyl-6-{[3-(2,5-dioxopyrrolidin-1-yl)propyl](methylsulfonyl)amino}-N-methyl-2H-indazole-3-carboxamide], in assay [1], the IC50 was under 0.99 µM. Also, the EC50 in assay [2] is under 0.99 µM.

For the compound `CNC(=O)c1c2cc(C3CC3)c(N(CCCN3CCNC3=O)S(C)(=O)=O)cc2nn1-c1ccc(Br)cc1` [Compound 70, 2-(4-Bromophenyl)-5-cyclopropyl-N-methyl-6-{(methylsulfonyl)[3-(2-oxoimidazolidin-1-yl)propyl]amino}-2H-indazole-3-carboxamide], the IC50 in assay [1] was under 0.99 µM. Also, in assay [2], the EC50 lay within 1 to 9.99 µM.

Take `C=Cc1cc2c(C(=O)NC)n(-c3ccc(F)cc3)nc2cc1N(CC)S(C)(=O)=O` [Compound 71, 5-Ethenyl-6-[ethyl(methylsulfonyl)amino]-2-(4-fluorophenyl)-N-methyl-2H-indazole-3-carboxamide]: the IC50 in assay [1] lay within 1 to 9.99 µM. The EC50 in assay [2] is 1 to 9.99 µM.

In the case of `CCc1cc2c(C(=O)NC)n(-c3ccc(F)cc3)nc2cc1N(CC)S(C)(=O)=O` [Compound 72, 5-ethyl-6-[ethyl(methylsulfonyl)amino]-2-(4-fluorophenyl)-N-methyl-2H-indazole-3-carboxamide], in assay [1], the IC50 was in the range of 1 to 9.99 µM. Moreover, in assay [2], the half-maximal effective concentration (EC50) is 1 to 9.99 µM.

On to `CCN(c1cc2nn(-c3ccc(F)cc3)c(C(=O)NC)c2cc1C1=CCCC1)S(C)(=O)=O` [Compound 73, 5-(Cyclopent-1-en-1-yl)-6-[ethyl(methylsulfonyl)amino]-2-(4-fluorophenyl)-N-methyl-2H-indazole-3-carboxamide], for which the IC50 in assay [1] was 10 to 50 µM. Moreover, in assay [2], the concentration for a half-maximal effect (EC50) was in the range of 1 to 9.99 µM.

In the case of `CCN(c1cc2nn(-c3ccc(F)cc3)c(C(=O)NC)c2cc1C1CCCC1)S(C)(=O)=O` [Compound 74, 5-cyclopentyl-6-[ethyl(methylsulfonyl)amino]-2-(4-fluorophenyl)-N-methyl-2H-indazole-3-carboxamide], the IC50 in assay [1] lay in the range of 10 to 50 µM. In assay [2], the EC50 was in the range of 1 to 9.99 µM.

For `CCN(c1cc2nn(-c3ccc(F)cc3)c(C(=O)NC)c2cc1C#CCO)S(C)(=O)=O` [Compound 75, 6-[Ethyl(methylsulfonyl)amino]-2-(4-fluorophenyl)-5-(3-hydroxyprop-1-yn-1-yl)-N-methyl-2H-indazole-3-carboxamide], the IC50 in assay [1] was 1 to 9.99 µM. Besides, the EC50 in assay [2] lay within 10 to 50 µM.

`CCN(c1cc2nn(-c3ccc(F)cc3)c(C(=O)NC)c2cc1/C=C\CO)S(C)(=O)=O` [Compound 76, 6-[ethyl(methylsulfonyl)amino]-2-(4-fluorophenyl)-5[(1Z)-3-hydroxyprop-1-en-1-yl]-N-methyl-2H-indazole-3-carboxamide]: the IC50 in assay [1] lay within 10 to 50 µM. In addition, the EC50 in assay [2] lay within 1 to 9.99 µM.

Regarding `C#Cc1cc2c(C(=O)NC)n(-c3ccc(F)cc3)nc2cc1N(CC)S(C)(=O)=O` [Compound 77, 6-[Ethyl(methylsulfonyl)amino]-5-ethynyl-2-(4-fluorophenyl)-N-methyl-2H-indazole-3-carboxamide], the IC50 in assay [1] fell in the range of 10 to 50 µM. In addition, the EC50 in assay [2] is 1 to 9.99 µM.

In the case of `CCN(c1cc2nn(-c3ccc(F)cc3)c(C(=O)NC)c2cc1OC(F)F)S(C)(=O)=O` [Compound 78, 5-(Difluoromethoxy)-6-[ethyl(methylsulfonyl)amino]-2-(4-fluorophenyl)-N-methyl-2H-indazole-3-carboxamide], the IC50 in assay [1] fell in the range of 10 to 50 µM. The EC50 in assay [2] was in the range of 1 to 9.99 µM.

Consider `CNC(=O)c1c2cc(C3CC3)c(N(CCCO)S(C)(=O)=O)cc2nn1-c1ccc(COC(C)C)cc1` [Compound 79, 5-Cyclopropyl-6-[(3-hydroxypropyl)(methylsulfonyl)amino]-N-methyl-2-{4-[(propan-2-yloxy)methyl]phenyl}-2H-indazole-3-carboxamide], for which the IC50 in assay [1] was in the range of 1 to 9.99 µM. In assay [2], the EC50 was 1 to 9.99 µM.

On to `CNC(=O)c1c2cc(C3CC3)c(-c3c(C)noc3C)cc2nn1-c1ccc(F)cc1` [Compound 83, 5-Cyclopropyl-6-(3,5-dimethyl-1,2-oxazol-4-yl)-2-(4-fluorophenyl)-N-methyl-2H-indazole-3-carboxamide], for which the IC50 in assay [1] is 10 to 50 µM. In addition, in assay [2], the EC50 lay within 1 to 9.99 µM.

As to `CCOC(=O)CCCN(c1cc2nn(-c3ccc(Br)cc3)c(C(=O)NC)c2cc1C1CC1)S(C)(=O)=O` [Compound 88, Ethyl 4-{[2-(4-bromophenyl)-5-cyclopropyl-3-(methylcarbamoyl)-2H-indazol-6-yl](methylsulfonyl)amino}butanoate], the IC50 in assay [1] is under 0.99 µM. The half-maximal effective concentration (EC50) in assay [2] was under 0.99 µM.

As to `CNC(=O)c1c2cc(C3CC3)c(N(CCCC(=O)O)S(C)(=O)=O)cc2nn1-c1ccc(Br)cc1` [Compound 89, 4-{[2-(4-bromophenyl)-5-cyclopropyl-3-(methylcarbamoyl)-2H-indazol-6-yl](methylsulfonyl)amino}butanoic acid], the IC50 in assay [1] was under 0.99 µM. For the same compound, the EC50 in assay [2] lay in the range of 10 to 50 µM.

As for `CNC(=O)c1c2cc(C3CC3)c(N(CCC(=O)O)S(C)(=O)=O)cc2nn1-c1ccc(Br)cc1` [Compound 90, N-[2-(4-bromophenyl)-5-cyclopropyl-3-(methylcarbamoyl)-2H-indazol-6-yl]-N-(methylsulfonyl)-beta-alanine], in assay [1], the IC50 was under 0.99 µM. Besides, the EC50 in assay [2] fell in the range of 10 to 50 µM.

Take `CNC(=O)c1c2cc(C3CC3)c(N(CCC(=O)NC(C)C)S(C)(=O)=O)cc2nn1-c1ccc(Br)cc1` [Compound 91, 2-(4-bromophenyl)-5-cyclopropyl-N-methyl-6-((methylsulfonyl)[3-oxo-3-(propan-2-ylamino)propyl]amino)-2H-indazole-3-carboxamide]: in assay [1], the IC50 fell in the range of 1 to 9.99 µM. The EC50 in assay [2] fell in the range of 1 to 9.99 µM.
